Results reported in patent publication US4487831A, “Process for the conversion of cellulose to glucose” (Research Corporation, priority 1982, dated 1984).
Read-outs that look alike come from different tables or passages of the source.

Experiments:
[1] = system: cellobiase from Trichoderma reesei; conditions: Table 3; substrate cellobiose; as reported in the literature; cited from earlier work
[2] = system: purified cellobiase from Aspergillus terreus (ATCC 20514); assay: Km of purified cellobiase for cellobiose; assay type: biochemical; conditions: substrate cellobiose
Procedure: The activity on cellobiose was determined by two different methods. In the first method 0.4 ml of the substrate, 12.5 mM cellobiose in 0.0625M sodium citrate buffer (pH 4.8), was preheated to 50° C., then 0.1 ml of the preheated enzyme solution was added to the substrate and the tubes stoppered. Each sample was incubated for 1.5 minutes placed in a boiling water bath for 30 seconds and then immediately cooled in an ice bath. This reaction mixture was added to 5 ml of the glucose oxidase reagent from a glucose assay kit (Sigma Chemical Co.) and the amount of glucose produced from cellobiose hydrolysis was determined spectrophometrically.
In the second method the amount of glucose produced was measured on a high pressure liquid chromatograph. The cellobiose substrate consisted of 0.03M cellobiose in 0.075M sodium citrate buffer (pH 4.8). The substrate and enzyme solution was preheated to 50° C., then 0.25 ml of the enzyme solution was added to 0.5 ml of the substrate and incubated for 10 minutes. […]
Using cellobiose as the substrate, the purified cellobiase enzyme from Aspergillus terreus was capable of producing 215 micromoles of glucose from cellobiose per minute per milligram of enzyme protein. […] The specific activity of our purified cellobiase is expressed as 215 units per mg protein. […]

[3] = system: cellobiase from Aspergillus phoenicis; conditions: Table 3; substrate cellobiose; as reported in the literature; cited from earlier work
[4] = target: T1, cellobiase from Alcaligenes faecalis (Agrobacterium sp., UniProt P12614); conditions: read-out: Ki (molar); Table 4; inhibitor glucose; type of inhibition competitive; reference (1) Ivanova et al 1980; cited from earlier work
T1 sequence (P12614 1-459): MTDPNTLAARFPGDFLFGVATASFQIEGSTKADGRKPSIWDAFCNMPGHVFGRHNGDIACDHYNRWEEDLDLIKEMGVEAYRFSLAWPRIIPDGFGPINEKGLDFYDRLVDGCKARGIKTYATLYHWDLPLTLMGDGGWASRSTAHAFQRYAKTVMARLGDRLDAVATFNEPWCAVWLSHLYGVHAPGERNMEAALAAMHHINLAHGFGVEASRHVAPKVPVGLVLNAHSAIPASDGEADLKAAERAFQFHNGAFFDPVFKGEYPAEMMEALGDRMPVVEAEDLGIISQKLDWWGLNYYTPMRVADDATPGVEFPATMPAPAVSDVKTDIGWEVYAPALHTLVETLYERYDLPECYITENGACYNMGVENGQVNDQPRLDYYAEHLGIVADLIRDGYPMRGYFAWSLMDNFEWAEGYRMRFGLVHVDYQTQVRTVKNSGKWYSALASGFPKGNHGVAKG

[5] = target: cellobiase from Phanerochaete chrysosporium; conditions: Table 4; inhibitor glucose; type of inhibition competitive; reference (3) Smith and Gold 1979; cited from earlier work
[6] = target: purified cellobiase from Aspergillus terreus (ATCC 20514); assay: Glucose inhibition of purified cellobiase, PNPG as substrate; assay type: biochemical
Procedure: The β-glucosidase activity was routinely determined using p-nitrophenyl-β-D-glucoside (PNPG) as the substrate. Two milliliters of a 10 mM PNPG solution in 0.05M sodium citrate buffer solution (pH 4.8) were heated to 50° C. Then […] of the enzyme solution was added to the substrate and incubated for 15 minutes. After incubation, 3 ml of 1.0M aqueous sodium carbonate solution were added to stop the reaction and develop the color. The absorbance was read at 400 nm and the amount of p-nitrophenol liberated was determined from a standard curve. The time of incubation varied depending on the activity of the enzyme preparation tested. A unit (IU) of activity was defined as the amount of enzyme required to liberate one micromole of p-nitrophenol per minute from the substrate.
Glucose is a competitive inhibitor of the cellobiase enzyme from Aspergillus terreus. […] The Ki is the concentration of inhibitor required to slow the reaction down to one-half its maximum velocity, therefore, the larger the Ki the less inhibitory the inhibitor is.

[7] = target: cellobiase from Lenzites trabes; conditions: Table 4; inhibitor glucose; type of inhibition noncompetitive; reference (2) Herr et al 1978; cited from earlier work

SMILES | Km [1] [µM] | Km ([2]; Table 3, read-out: Km) [µM] | Km ([2]; purified enzyme, pH 4.8, 50° C., read-out: affinity (Km) for cellobiose) [µM] | Km [3] [µM] | Ki [4] [mM] | Ki [5] [mM] | Ki ([6]; Table 4, inhibitor glucose, type of inhibition competitive, read-out: Ki) [mM] | Ki ([6]; competitive inhibitor, p-nitrophenyl-β-D-glucoside as substrate, read-out: Ki dissociation constant for glucose) [mM] | Ki [7] [mM]
OC[C@H]1O[C@@H](O[C@H]2[C@H](O)[C@@H](O)C(O)O[C@@H]2CO)[C@H](O)[C@@H](O)[C@@H]1O (stereo partly drawn) [cellobiose] | 3300 | 400 | 400 | 750 |  |  |  |  | 
OC[C@H]1OC(O)[C@H](O)[C@@H](O)[C@@H]1O (stereo partly drawn) [glucose] |  |  |  |  | 3 | 0.5 | 3.5 | 3.5 | 2.7
